Article PMC9180903, “Substituted Syndecan-2-Derived Mimetic Peptides Show Improved Antitumor Activity over the Parent Syndecan-2-Derived Peptide” (International Journal of Molecular Sciences, 2022)
Ends that are not written are not given here.

T1: pro-domain of MMP-7 (PDMMP-7) (Homo sapiens, UniProt P09237)
T1 construct: TRX-His tag (N, cleaved yes); made in house
T1 sequence (P09237 18-94 limits assumed): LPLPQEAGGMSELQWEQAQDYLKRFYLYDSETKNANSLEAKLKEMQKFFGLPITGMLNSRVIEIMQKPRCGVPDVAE

T2: pro-domain of matrix metalloproteinase-7 (MMP-7)
T2 sequence (P09237 whole entry, species assumed, looked up): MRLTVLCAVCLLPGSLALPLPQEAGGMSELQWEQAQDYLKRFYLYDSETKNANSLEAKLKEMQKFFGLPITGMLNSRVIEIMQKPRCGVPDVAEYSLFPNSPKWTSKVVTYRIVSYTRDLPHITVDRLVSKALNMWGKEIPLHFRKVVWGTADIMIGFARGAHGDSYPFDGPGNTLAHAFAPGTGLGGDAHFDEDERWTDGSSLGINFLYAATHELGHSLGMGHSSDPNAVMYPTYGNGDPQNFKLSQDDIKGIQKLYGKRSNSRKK


What was measured:
[1] = target: T1, pro-domain of MMP-7 (PDMMP-7); experiment: Fluorescence titration of peptides against MMP-7 pro-domain; type: binding; settings: fluorescence spectroscopy; for Kd: ex 280 nm, em 347 nm, 10 μM PDMMP-7, peptide titrated up to 1:80, PBS pH 7.4, 25 °C
Protocol: The gene encoding the pro-domain sequence (PDMMP-7) was cloned into the pET32a vector, which has a TRX-His tag at the N-terminus, for protein expression and purification. Between the TRX-His tag and the pro-domain, a TEV cleavage sequence was inserted. Proteins were overexpressed with 1 mM IPTG and isolated using Ni-NTA affinity chromatography. The purified TRX-His tag-PDMMP-7 was incubated with TEV protease at a 1:1 molar ratio for 12 h. The reaction mixture was further purified in phosphate-buffered saline (PBS) buffer at pH 7.4 using a HiLoad^TM superdex^TM 75 column (GE Healthcare, Little Chalfont, UK) to remove tags. The final protein sample was concentrated to 14 mg/mL for the fluorescence experiment.
The binding affinity between the PDMMP-7 and each synthetic peptide was measured at 298 K (25 °C) using an LS55 fluorescence spectrophotometer (Perkin Elmer, Waltham, MA, USA) at wavelengths of 280 nm (excitation) and 300–450 nm (emission). PDMMP-7 and peptides were prepared in phosphate-buffered saline (PBS) buffer at pH 7.4. The concentration of PDMMP-7 was set at 10 μM, and the input amount of each peptide versus PDMMP-7 was titrated at a molar ratio up to 1:80 using a thermostat cuvette. The dissociation constant (Kd) of the PDMMP-7/peptide complex was calculated using the equation log[(Fo − F)/F] = log(1/Kd) + nlog[ligand], where Fo and F represent the fluorescence intensity of PDMMP-7 at 347 nm in the absence and presence of the peptide, respectively, and n represents the number of binding sites.

MMPs = system: MMPs; parameters: method as in PMID 29735645, PMID 9484924, PMID 10100701, PMID 12085177; settings: batimastat phase I, marimastat phase III; cited from earlier work
HCT116 cells = experiment: MTT assay; type: cell-based, human; settings: 50 nM peptide
Protocol: (§1) Cell proliferation was measured by a colorimetric assay using 3-(4,5-dimethythiazol-2-yl) 2,5-diphenyltetrazolium bromide (MTT; Amresco, Solon, OH, USA) according to the manufacturer’s instructions. Briefly, cells were harvested with 0.05% trypsin/EDTA and seeded to 48-well plates (Thermo Fisher Scientific). After cells were allowed to attach to the plate for 24 h, medium containing 0.5 mg/mL MTT was added to each plate and incubation was continued for 1 h. The medium was then removed, and 200 μL of dimethyl sulfoxide (DMSO) was added to each plate for 30 min at room temperature. The mean concentration of absorbance at 570 nm in each set of samples was measured using a 96-well microtiter plate reader (Dynatech, Chantilly, VA, USA).

HT29-SDC2 cells = experiment: MTT assay; type: cell-based, human; settings: 50 nM, up to 48 h
Protocol: as §1

[2] = target: T2, pro-domain of matrix metalloproteinase-7 (MMP-7); experiment: other fluorescence titration; intrinsic fluorescence of PDMMP-7 (10 μM; excitation 280 nm, emission 300-450 nm, read at 347 nm), peptide titrated up to a molar ratio of 1:80, PBS pH 7.4, 298 K (25 °C)

Molecule | Kd [1] [µM] | Kd [2] [µM] | also measured
SGVYPIDDDDYASASGSGAD [S2-P] | 1220 | – | –
CNC(=O)[C@@H](NC(=O)[C@H](CC(C)C)[C@H](O)C(=O)NO)C(C)(C)C [marimastat] | – | – | side effects in clinical trials (MMPs): significant musculoskeletal toxicity
SGVYPIDDDDYDSASGSGAD [S2-D] | 550 | – | cytotoxicity in HCT116 cells (HCT116 cells): did not exert cytotoxicity; cytotoxicity against HT29-SDC2 cells (HT29-SDC2 cells): Neither peptide showed cytotoxicity
SGVYPIDDFDYESASGSGAD [S2-FE] | 456 | – | cytotoxicity in HCT116 cells (HCT116 cells): did not exert cytotoxicity; cytotoxicity against HT29-SDC2 cells (HT29-SDC2 cells): Neither peptide showed cytotoxicity
SGVYPIDDLDYASASGSGAD [S2-L, modified SDC2-mimetic peptide derived from S2-P] | – | – | binding to the MMP-7 pro-domain compared to S2-P ([1]; PBS pH 7.4, 25 °C): reduced binding
SGVYPIFDLDYDSASGSGAD [S2-FLD] | 64 | – | –
SGVYPIDDDDYASASGSGAD [S2-P, synthetic peptide corresponding to human SDC2 extracellular domain residues 41-60] | – | 1220 | –
SGVYPIDDDDYDSASGSGAD [S2-D, SDC2-mimetic peptide with an Ala-to-Asp substitution at the C-terminal side of Tyr 51] | – | 550 | –
SGVYPIDDFDYESASGSGAD [S2-FE, SDC2-mimetic peptide] | – | 456 | –
SGVYPIFDLDYDSASGSGAD [S2-FLD, SDC2-mimetic peptide] | – | 64 | –
